Tested on: IFN-β
Assay: Semi-quantitative RT-PCR of IFN-β gene expression in THP1-Dual / KO STING cells
Type: cell-based
Conditions: THP1-WT, treated 5 or 22 hrs; Cmd 1 alone (no lipo)
Method: RNA samples were prepared using Qiagen RNeasy kit and the expression of IFNβ, IRF7 and housekeeper gene β-actin was determined using semi-quantitative reverse transcription (RT)-PCR (started with equal amounts of RNA). PCR products were subjected to 1% agarose gel electrophoresis.
Lipofectamine 2000 also activates IFN-β gene, but cells were treated with Cmd 1 alone (no lipo). DMSO is the negative control.

Nc1nc2c(ncn2[C@@H]2O[C@@H]3COP(=O)(O)O[C@H]4[C@@H](O)[C@H](n5cnc6c(N)ncnc65)O[C@@H]4COP(=O)(O)O[C@@H]2[C@@H]3O)c(=O)[nH]1 [2′3′-cGAMP]
Time to induce IFN-β gene expression: ≤ 5 h
